From US6469059B1, “Fungicidal composition and method for disease control of paddy-rice plants” (BASF Aktiengesellschaft, priority 1999, dated 2002)
Where two headings read alike, the source gives them in different places.

What was measured:
Assay type in all cases: in vivo
[1] = tested on: Blast (Pyricularia oryzae); conditions: granules water-applied 7 days before inoculation
[2] = tested on: Blast (Pyricularia oryzae); conditions: foliar spray before inoculation, rice plant (Kin-maze)
[3] = tested on: Blast (Pyricularia oryzae); conditions: sprayed one day after inoculation
[4] = tested on: Sheath blight (Rhizoctonia solani); test: Preventive effect by application against Sheath blight (foliar spray); conditions: foliar spray before inoculation, ten-leave-stage rice
Experimental: Preventive Effect by Application Against Sheat Blight (Rhizoctonia solani)
The wettable powders prepared according to the Formulation Examples which were diluted with water to a predetermined concentrations were sprayed to the stems and leaves of ten-leave-stage of rice plant (Kin-maze) cultivated in pots under flooding. After air-drying, the fungous nucleiof Sheath blight (Rhizoctonia solani) was inoculated at the root of the plant. After that, the plant was allowed to stand under humid conditions at 30° C. for one week, and then, the number of the disease lesion was determined to obtain the preventive index according to the criterion of Test Example 1.

[5] = tested on: Sheath blight (Rhizoctonia solani); test: Preventive effect by paddy water application against Sheath blight; conditions: water-applied 7 days before inoculation
Experimental: Preventive Effect by Paddy Water Application Against Sheath Blight (Rhizoctonia solani)
By using pots of 1/8000 are, the compounds prepared according to the Formulations Examples which were diluted with water to a predetermined concentration were water-applied to ten-leave-stage rice plant (Kin-maze) cultivated under flooding. The treated pots were allowed to stand in a greenhouse for seven days, and the fungus nuclei of Sheath blight (Rhizoctonia solani) was inoculated at the root of the plant. Then, the plant was allowed to stand under humid conditions at 30° C. for one week, and then, the number of the disease lesion was determined to obtain the preventive index according to the criterion of Test Example 1.

[6] = tested on: Helminthosporium leaf spot (Cochliobolus miyabeanus); test: Preventive effect by application against Helminthosporium leaf spot (foliar spray); conditions: foliar spray before inoculation, six-leave-stage rice

SMILES: CSC(=O)c1cccc2nnsc12 [Compound 24, S-methyl-benzo(1,2,3)-thiadiazole-7-carbothiolate]
- Preventive index ([1]; 50 g/10a active ingredient): 3 (Preventive value 60 to 84%)

SMILES: CC(C)Oc1cccc(NC(=O)c2ccccc2C(F)(F)F)c1 [Compound 1, α,α,α-trifluoro-3′-isopropoxy-O-toluanilide]
- Preventive index ([2]; 500 ppm active ingredient): 0
- Preventive index ([1]; 200 g/10a active ingredient): 0
- Preventive index ([3]; 200 ppm active ingredient): 0
- Preventive index ([4]; 10 ppm active ingredient): 3 (Preventive value 60 to 84%)

SMILES: CC(C)NC(=O)N1CC(=O)N(c2cc(Cl)cc(Cl)c2)C1=O [Compound 8, 3-(3,5-dichlorophenyl)-N-isopropyl-2,4-dioxoimidazolidine-1-carboxamide]
- Preventive index ([5]; 10 g/10a active ingredient): 3 (Preventive value 60 to 84%)
- Preventive index ([6]; 10 ppm active ingredient): 3 (Preventive value 60 to 84%)

SMILES: Cc1nc(C(F)(F)F)c(C(=O)Nc2c(Br)cc(OC(F)(F)F)cc2Br)s1 [Compound 3, N-(2,6-dibromo-4-trifluoromethoxyphenyl)-2-methyl-4-trifluoromethylthiazole-5-carboxamide]
- Preventive index ([2]; 500 ppm active ingredient): 0
- Preventive index ([4]; 10 ppm active ingredient): 3 (Preventive value 60 to 84%)

SMILES: CNC(=O)/C(=N/OC)c1ccccc1Oc1ccccc1 [Compound 14, 2-methoxyimino-N-methyl-2-(2-phenoxy)phenyl-acetamide]
- Preventive index ([1]; 50 g/10a active ingredient): 3 (Preventive value 60 to 84%)
- Preventive index ([4]; 50 ppm active ingredient): 3 (Preventive value 60 to 84%)
- Preventive index ([6]; 50 ppm active ingredient): 3 (Preventive value 60 to 84%)

SMILES: O=C1CCc2cccc3c2N1CC3 [Compound 22, 1,2,5,6-tetrahydropyrrolo(3,2,1-i,j)quinolin-4-one]
- Preventive index ([1]; 10 g/10a active ingredient): 4 (Preventive value 85 to 94%)

SMILES: CC(=O)O.CC(=O)O.CC(=O)O.N=C(N)NCCCCCCCCNCCCCCCCCNC(=N)N [Compound 12, 1,1′-iminodi(octamethylene)diguanidinium triacetate]
- Preventive index ([5]; 10 g/10a active ingredient): 3 (Preventive value 60 to 84%)
- Preventive index ([6]; 10 ppm active ingredient): 3 (Preventive value 60 to 84%)

SMILES: C/C(=N/Nc1nc(C)cc(C)n1)c1ccccc1C [Compound 11, (Z)-2′-methylacetophenone 4,6-dimethylpyrimidin-2-ylhydrazone]
- Preventive index ([5]; 10 g/10a active ingredient): 3 (Preventive value 60 to 84%)
- Preventive index ([6]; 10 ppm active ingredient): 3 (Preventive value 60 to 84%)

SMILES: C=CCOC1=NS(=O)(=O)c2ccccc21 [Compound 23, 3-allyloxy-1,2-benzoisothiazole-1,1-dioxide]
- Preventive index ([1]; 50 g/10a active ingredient): 3 (Preventive value 60 to 84%)

SMILES: Cc1nn(C)c(Cl)c1C(=O)Nc1cccc2c1COC2(C)C [Compound 4, 5-chloro-1,3-dimethyl-N-(1,1-dimethyl-2-oxa-4-indanyl)pyrazole-4-carboxamide]
- Preventive index ([1]; 200 g/10a active ingredient): 0

SMILES: C[C@H]1O[C@H](O[C@H]2[C@H](O)[C@@H](O)[C@@H](O)[C@H](O)[C@@H]2O)[C@@H](N)C[C@@H]1NC(=N)C(=O)O [Compound 19, kasugamycin]
- Preventive index ([3]; 20 ppm active ingredient): 4 (Preventive value 85 to 94%)

SMILES: CCOP(=O)(Sc1ccccc1)Sc1ccccc1 [Compound 16, O-ethyl-S,S-diphenyldithiophosphate]
- Preventive index ([2]; 50 ppm active ingredient): 3 (Preventive value 60 to 84%)

SMILES: Cc1c(Cl)cc(-c2ccc(=O)[nH]n2)cc1Cl [Compound 7, 6-(3,5-dichloro-4-methylphenyl)-3(2H)-pyridazinone]
- Preventive index ([4]; 10 ppm active ingredient): 2

SMILES: CO/C=C(/C(=O)OC)c1ccccc1Oc1cc(Oc2ccccc2C#N)ncn1 [Compound 13, methyl (E)-2-{2-[6-(2-cyanophenoxy)pyrimidin-4-yloxy]phenyl}-3-methoxy-acrylate]
- Preventive index ([1]; 10 g/10a active ingredient): 3 (Preventive value 60 to 84%)
- Preventive index ([4]; 10 ppm active ingredient): 3 (Preventive value 60 to 84%)
- Preventive index ([6]; 10 ppm active ingredient): 3 (Preventive value 60 to 84%)

SMILES: CCCCC(C#N)(Cn1cncn1)c1ccc(Cl)cc1 (stereo not shown) [Compound 9, 2-p-chlorophenyl-2-(1H-1,2,4-triazol-1-ylmethyl)hexanenitrile]
- Preventive index ([5]; 10 g/10a active ingredient): 3 (Preventive value 60 to 84%)
- Preventive index ([6]; 10 ppm active ingredient): 3 (Preventive value 60 to 84%)

SMILES: Cc1ccccc1C(=O)Nc1cccc(OC(C)C)c1 [Compound 2, 3′-isopropoxy-2-methylbenzanilide]
- Preventive index ([2]; 500 ppm active ingredient): 0
- Preventive index ([4]; 10 ppm active ingredient): 2

SMILES: OCC1=C[C@H](N[C@H]2C[C@H](CO)[C@@H](O[C@@H]3O[C@H](CO)[C@@H](O)[C@H](O)[C@H]3O)[C@H](O)[C@H]2O)[C@H](O)[C@@H](O)[C@@H]1O [Compound 5, validamycin]
- Preventive index ([2]; 500 ppm active ingredient): 0
- Preventive index ([4]; 10 ppm active ingredient): 3 (Preventive value 60 to 84%)

SMILES: CCCCC(O)(Cn1cncn1)c1ccc(Cl)cc1Cl (racemic) [Compound 10, (RS)-2-(2,4-dichlorophenyl)-1-(1H-1,2,4-triazol-1-yl)hexan-2-ol]
- Preventive index ([5]; 10 g/10a active ingredient): 3 (Preventive value 60 to 84%)
- Preventive index ([6]; 10 ppm active ingredient): 3 (Preventive value 60 to 84%)

SMILES: O=C(Nc1ccccc1)N(Cc1ccc(Cl)cc1)C1CCCC1 [Compound 6, 1-(4-chlorobenzyl)-1-cyclopentyl-3-phenylurea]
- Preventive index ([2]; 500 ppm active ingredient): 0
- Preventive index ([4]; 10 ppm active ingredient): 3 (Preventive value 60 to 84%)

SMILES: CC(NC(=O)C(C#N)C(C)(C)C)c1ccc(Cl)cc1Cl (stereo not shown) [Compound 21, N-[1-(2,4-dichlorophenyl)ethyl]-2-cyano-3,3-dimethylbuthaneamide]
- Preventive index ([2]; 5 ppm active ingredient): 4 (Preventive value 85 to 94%)

SMILES: CC(Oc1ccc(Cl)cc1Cl)C(=O)NC(C)(C#N)C(C)C (stereo not shown) [Compound A, N-(1-cyano-1,2-dimethylpropyl)-2-(2,4-dichlorophenoxy)propanamide]
- Preventive index ([1]; 10 g/10a active ingredient): 3 (Preventive value 60 to 84%)
- Preventive index ([4]; 200 ppm active ingredient): 0
- Preventive index ([5]; 200 g/10a active ingredient): 0
- Preventive index ([6]; 200 ppm active ingredient): 0
